This passage reports MIC results from patent US8796245B2 (TetraPhase Pharmaceuticals, Inc., priority 2008, dated 2014).

In brackets after ≈: the same amount, converted by molar mass. Some results are limits rather than exact numbers.

Common to all, as to type: cell-based
The test system of assay [1] is E. faecalis ATCC 29212 (EF103). Nature of the assay: Minimum inhibitory concentration assay, EF103. The settings on record: Enterococcus faecalis, ATCC29212, read-out: MICs EF103. The procedure: (§1) Frozen bacterial strains were thawed and subcultured onto Mueller Hinton Broth (MHB) or other appropriate media (Streptococcus requires blood and Haemophilus requires hemin and NAD). Following incubation overnight, the strains were subcultured onto Mueller Hinton Agar and again incubated overnight. […] Isolated colonies were selected to prepare a starting inoculum equivalent to a 0.5 McFarland standard. The starting inoculum was diluted 1:125 using MHB for further use. Test compounds were prepared by dilution in sterile water to a final concentration of 5.128 mg/mL. Antibiotics (stored frozen, thawed and used within 3 hours of thawing) and compounds were further diluted to the desired working concentrations.
(§2) The assays were run as follows. Fifty μL of MHB was added to wells 2-12 of a 96-well plate. One hundred […] of appropriately diluted antibiotics was added to well 1. Fifty μL of antibiotics was removed from well 1 and added to well 2 and the contents of well 2 mixed by pipetting up and down five times. Fifty μL of the mixture in well 2 was removed and added to well 3 and mixed as above. Serial dilutions were continued in the same manner through well 12. Fifty μL was removed from well 12 so that all contained 50 μL. Fifty μL of the working inoculum was then added to all test wells. A growth control well was prepared by adding 50 μL of working inoculum and 50 μL of MHB to an empty well. The plates were then incubated at 37° C. overnight, removed from the incubator and each well was read on a plate reading mirror. The lowest concentration (MIC) of test compound that inhibited the growth of the bacteria was recorded.

In assay [2] the test system is S. aureus ATCC 13709 (SA100, MSSA, Smith strain). Nature of the assay: Minimum inhibitory concentration assay, SA100. The settings on record: Staphylococcus aureus; S. aureus ATCC 13709, MSSA Smith strain; read-out: MICs SA100. The protocol:
as §1, §2

For assay [3], the system named is K. pneumoniae KP153 (tet resistant: tetA efflux). Description: microbe, parasite or virus in culture. The following applies: Klebsiella pneumoniae, read-out: MICs KP153. The protocol:
as §1, §2

Assay [4] relates to S. aureus SA158 (tet resistant: tetK efflux). Nature of the assay: microbe, parasite or virus in culture. The settings on record: Staphylococcus aureus, read-out: MICs SA158. The protocol:
as §1, §2

In assay [5] the test system is E. coli EC155 (tet resistant: tetA efflux). Nature of the assay: microbe, parasite or virus in culture. The settings on record: Escherichia coli; E. coli tet resistant: tetA (efflux); read-out: MICs EC155. The procedure: as §1, §2
The test system of assay [6] is E. cloacae ATCC 13047 (EC108). Nature of the assay: Minimum inhibitory concentration assay, EC108. The settings on record: Enterobacter cloacae, ATCC13047; E. cloacae ATCC 13047, wt; read-out: MICs EC108. The protocol: as §1, §2
In assay [7] the test system is S. pneumoniae ATCC 49619 (SP106). Nature of the assay: Minimum inhibitory concentration assay, SP106. The following applies: Streptococcus pneumoniae, ATCC49619; S. pneumoniae ATCC 49619, wt; read-out: MICs SP106. The procedure: as §1, §2
Assay [8] has as its system A. baumanii ATCC 19606 (AB110). Nature of the assay: Minimum inhibitory concentration assay, AB110. The settings on record: Acinetobacter baumannii, ATCC19606; A. baumanii ATCC 19606, wt; read-out: MICs AB110. The protocol: as §1, §2
Assay [9] has as its system S. aureus ATCC 29213 (SA101, MSSA). Description: Minimum inhibitory concentration assay, SA101. The settings on record: Staphylococcus aureus; S. aureus ATCC 29213, MSSA control; read-out: MICs SA101. The procedure:
as §1, §2

For assay [10], the system named is P. aeruginosa ATCC 27853 (PA111). Description: Minimum inhibitory concentration assay, PA111. The following applies: Pseudomonas aeruginosa, ATCC27853; P. aeruginosa ATCC 27853, wt; read-out: MICs PA111. The procedure: as §1, §2
For assay [11], the system named is E. coli ATCC 25922 (EC107). Nature of the assay: Minimum inhibitory concentration assay, EC107. The following applies: Escherichia coli, ATCC25922; E. coli ATCC 25922, wt; read-out: MICs EC107. The protocol: as §1, §2
Assay [12] has as its system K. pneumoniae ATCC 13883 (KP109). Description: Minimum inhibitory concentration assay, KP109. The settings on record: Klebsiella pneumoniae, ATCC13883; K. pneumoniae ATCC 13883, wt; read-out: MICs KP109. The protocol:
as §1, §2

For assay [13], the system named is S. aureus SA161 (tet resistant: tet(M) ribosomal protection). Nature of the assay: Minimum inhibitory concentration assay, SA161. The settings on record: Staphylococcus aureus, read-out: MICs SA161. The protocol: as §1, §2
Assay [14] concerns E. faecalis EF159 (tet resistant: tetM). Nature of the assay: Minimum inhibitory concentration assay, EF159. The following applies: Enterococcus faecalis, read-out: MICs EF159. The protocol: as §1, §2
The test system of assay [15] is S. pneumoniae SP160 (tet resistant: tet M). Nature of the assay: Minimum inhibitory concentration assay, SP160. The following applies: Streptococcus pneumoniae, read-out: MICs SP160. The procedure: as §1, §2

`CN(C)[C@@H]1C(O)=C(C(N)=O)C(=O)[C@@]2(O)C(O)=C3C(=O)c4c(O)c(NC(=O)CNC(C)(C)C)cc(F)c4C[C@H]3C[C@@H]12` [Compound 11]: the MIC in [1] came to 0.0625 µg/mL (≈ 0.111 µM); in [2] it was 0.25 µg/mL (≈ 0.446 µM); in assay [3] it was 2 µg/mL (≈ 3.57 µM); in [4] it was 0.0625 µg/mL (≈ 0.111 µM); in assay [5], 2 µg/mL (≈ 3.57 µM); in [6], 1 µg/mL (≈ 1.78 µM). For the same molecule, the MIC in [7] was at most 0.0156 µg/mL; in assay [8] it was 0.5 µg/mL (≈ 0.892 µM); in assay [9], 0.125 µg/mL (≈ 0.223 µM); in assay [10] it was 16 µg/mL (≈ 28.5 µM); in assay [11], 0.25 µg/mL (≈ 0.446 µM); in assay [12], 1 µg/mL (≈ 1.78 µM). Moreover, the MIC was 0.25 µg/mL (≈ 0.446 µM) in assay [13], 0.125 µg/mL (≈ 0.223 µM) in assay [14] and at most 0.0156 µg/mL in assay [15].
`CCCNCC(=O)Nc1cc(F)c2c(c1O)C(=O)C1=C(O)[C@]3(O)C(=O)C(C(N)=O)=C(O)[C@@H](N(C)C)[C@@H]3C[C@@H]1C2` [Compound 12]: the MIC in assay [1] was at most 0.0156 µg/mL; in assay [2], at most 0.0156 µg/mL; in assay [3], 4 µg/mL (≈ 7.32 µM); in assay [4], 0.5 µg/mL (≈ 0.915 µM); in assay [5] it was 8 µg/mL (≈ 14.6 µM); in assay [6] it was 1 µg/mL (≈ 1.83 µM). For the same molecule, the MIC in [7] was at most 0.0156 µg/mL; in assay [8], 1 µg/mL (≈ 1.83 µM); in assay [9], at most 0.0156 µg/mL; in assay [10] it was 16 µg/mL (≈ 29.3 µM); in [11], 0.25 µg/mL (≈ 0.457 µM); in assay [12] it was 1 µg/mL (≈ 1.83 µM). The MIC is 0.125 µg/mL (≈ 0.229 µM) in assay [13], 0.0625 µg/mL (≈ 0.114 µM) in assay [14] and at most 0.0156 µg/mL in [15].
As for `CCCCNCC(=O)Nc1cc(F)c2c(c1O)C(=O)C1=C(O)[C@]3(O)C(=O)C(C(N)=O)=C(O)[C@@H](N(C)C)[C@@H]3C[C@@H]1C2` [Compound 13], the MIC was at most 0.0156 µg/mL in assay [1]; at most 0.0156 µg/mL in assay [2]; 2 µg/mL (≈ 3.57 µM) in assay [3]; 0.25 µg/mL (≈ 0.446 µM) in assay [4]; 4 µg/mL (≈ 7.14 µM) in assay [5]; 1 µg/mL (≈ 1.78 µM) in assay [6]. For the same molecule, the MIC in assay [7] is at most 0.0156 µg/mL; in assay [8], 0.25 µg/mL (≈ 0.446 µM); in assay [9], at most 0.0156 µg/mL; in assay [10], 16 µg/mL (≈ 28.5 µM); in assay [11] it was 0.125 µg/mL (≈ 0.223 µM); in [12] it was 0.5 µg/mL (≈ 0.892 µM). For the same molecule, the MIC in assay [13] was 0.0625 µg/mL (≈ 0.111 µM); in [14], 0.0625 µg/mL (≈ 0.111 µM); in [15], at most 0.0156 µg/mL.
With `CCCCCCNCC(=O)Nc1cc(F)c2c(c1O)C(=O)C1=C(O)[C@]3(O)C(=O)C(C(N)=O)=C(O)[C@@H](N(C)C)[C@@H]3C[C@@H]1C2` [Compound 14], the MIC was 0.125 µg/mL (≈ 0.212 µM) in [1]; 0.25 µg/mL (≈ 0.425 µM) in [2]; 2 µg/mL (≈ 3.4 µM) in assay [3]; 0.25 µg/mL (≈ 0.425 µM) in assay [4]; 4 µg/mL (≈ 6.8 µM) in assay [5]; 2 µg/mL (≈ 3.4 µM) in assay [6]. Besides, the MIC in assay [7] came out at 0.03 µg/mL (≈ 0.051 µM); in assay [8] it was 0.25 µg/mL (≈ 0.425 µM); in assay [9] it was 0.5 µg/mL (≈ 0.849 µM); in [10], 16 µg/mL (≈ 27.2 µM); in [11] it was 0.5 µg/mL (≈ 0.849 µM); in assay [12], 1 µg/mL (≈ 1.7 µM). Besides, the MIC was found to be 0.5 µg/mL (≈ 0.849 µM) in assay [13], 0.25 µg/mL (≈ 0.425 µM) in assay [14] and 0.125 µg/mL (≈ 0.212 µM) in [15].
`CN(C)[C@@H]1C(O)=C(C(N)=O)C(=O)[C@@]2(O)C(O)=C3C(=O)c4c(O)c(NC(=O)CNCC(C)(C)C)cc(F)c4C[C@H]3C[C@@H]12` [Compound 15]: the MIC in assay [1] amounted to 0.5 µg/mL (≈ 0.87 µM); in [2], 0.5 µg/mL (≈ 0.87 µM); in assay [3], 4 µg/mL (≈ 6.96 µM); in assay [4] it was 0.25 µg/mL (≈ 0.435 µM); in assay [5], 4 µg/mL (≈ 6.96 µM); in assay [6] it was 4 µg/mL (≈ 6.96 µM). Also, the MIC is 0.016 µg/mL (≈ 0.0278 µM) in [7]; 0.125 µg/mL (≈ 0.218 µM) in assay [8]; 0.5 µg/mL (≈ 0.87 µM) in assay [9]; 16 µg/mL (≈ 27.8 µM) in assay [10]; 1 µg/mL (≈ 1.74 µM) in assay [11]; 2 µg/mL (≈ 3.48 µM) in [12]. The MIC turned out to be 0.5 µg/mL (≈ 0.87 µM) in assay [13], 0.5 µg/mL (≈ 0.87 µM) in assay [14] and 0.016 µg/mL (≈ 0.0278 µM) in assay [15].
